Test results published in patent EP3300716A1, “BIOFILM FORMATION INHIBITOR” (Riken Vitamin Co., Ltd., priority 2015, dated 2016).
Entries after “also recorded” stand apart in the source; their conditions may differ.

What was measured:
[1] = tested on: Candida albicans NBRC 1594; assay: Evaluation of biofilm formation inhibitory effect (96-well microplate static culture, crystal violet staining, O.D. 600); assay type: cell-based; conditions: class by 50% inhibitory concentration, threshold 20 ppm
Protocol: A potato dextrose agar (manufactured by Difco) was sterilized by autoclaving at 121°C for 15 minutes, added to a sterilized culture dish, and solidified to prepare an agar plate. A cryopreserved test fungus was spread on this agar plate and cultured at 30°C for 2 days. A yeast nitrogen base with 2% glucose (manufactured by Difco) was diluted 10-fold and sterilized by autoclaving at 121°C for 15 minutes. Twenty milliliters of this sterilized medium was placed into a conical flask with a baffle, and one loop of the agar-cultured test fungus was inoculated into the conical flask. Preculture was performed at 30°C with agitation at 150 rpm for 24 hours. Then, the fungal cells were collected by centrifugation (4700 rpm, 10 minutes, 20°C) . The collected fungal cells were washed with 20 mL of physiological saline and collected by centrifugation again (4700 rpm, 10 minutes, 20°C) . The collected fungal cells were resuspended in 10 mL of a Sabouraud-dextrose broth (liquid medium which contained 1.0% by mass of peptone and 4.0% by mass of glucose and was adjusted to a pH of 5.7 with 1 N hydrochloric acid, and hereinafter, it is called "SG medium"). This resuspension was diluted 20-fold with SG medium and used as a test fungal suspension. […] The test samples were separately dissolved in dimethyl sulfoxide (DMSO) to prepare test sample solutions. Two microliters of each test sample solution and 198 µL of the test fungal suspension were added to wells of a 96-well microplate (trade name: TC plate 96 well (Cell+); manufactured by Sarstedt) . The concentration of the test sample in the test sample solution was such that the concentration of the test sample in the combined total amount of the test sample solution and the test fungal suspension, i.e., the concentration of the test sample in the well would be 5 ppm, 25 ppm, 50 ppm or 100 ppm. Static culture was performed in the 96-well microplate containing the test sample solution and the test fungal suspension at 30°C for 2 days to allow biofilm formation to proceed in each well. […] After the static culture, the liquid in each well, including the test sample solution, the culture medium and the like, was removed, and the residue adherent to each well (cells, secretions, deposits, etc.) was regarded as a biofilm. To each well, 50 µL of a 0.01% by mass aqueous crystal violet solution (trade name, manufactured by Becton, Dickinson and Company) was added for staining of the biofilm. […] Then, 200 µL of ethanol was added to each well to elute the crystal violet bound to the biofilm, and the degree of formation of the biofilm adherent to the microplate was quantified. The quantification was performed by measuring the absorbance at 600 nm (O.D. 600) in each well with a microplate reader (model: SH-9000 Lab; manufactured by CORONA […] Co., Ltd.). The absorbance at 600 nm measured for the biofilm formed in the control well was used as the reference absorbance and assumed as 100% in terms of the degree of biofilm formation. The degree of biofilm formation for each test sample was calculated by comparison of the absorbance for the test sample with the reference absorbance. […] The graph of the logarithmic approximation curve was used to calculate the concentration of the test sample where the absorbance for the test sample is equal to 50% of the reference absorbance, that is, the degree of biofilm formation was 50% (hereinafter called "50% inhibitory concentration"). […]

[2] = tested on: Candida albicans NBRC 1594; assay: Evaluation of fungistatic effect (streak culture on brain heart infusion agar plate, visual observation); assay type: cell-based; conditions: for Evaluation of fungistatic effect: 1000 ppm-treated plot, agar plate, 30°C for 1 day; for fungicidal: conclusion drawn from fungal growth at 1000 ppm
Protocol: Ten milliliters of a brain heart infusion agar (manufactured by Difco) was sterilized by autoclaving at 121°C for 15 minutes and then cooled down to 50°C. To this, 100 µL of a solution of the test sample in dimethyl sulfoxide (DMSO) was added, and the mixture was stirred until homogeneous. The homogeneous mixture was added to a sterilized culture dish to prepare an agar plate. The concentration of the test sample in the agar plate was 10 ppm, 100 ppm, 300 ppm or 1000 ppm. Next, one loop of a cryopreserved test fungus (Candida albicans NBRC 1594) was streaked on each agar plate and cultured at 30°C for 1 day. […] When no growth was observed along the streak line on the agar plate, the test sample was determined to be fungistatic at the indicated concentration.

Candida biofilm = conditions: Table 2 of Patent Literature 1; cited from earlier work

CCCCCCCCCCCC(=O)OCC(O)COC(=O)CCCCCCCCCCC [Reference product 1, monoglyceryl dilaurate, reference compound]
Evaluation [1]: Poor in inhibition of biofilm formation (when the 50% inhibitory concentration of the test sample was more than 20 ppm, the test sample was regarded as poor in the inhibition of biofilm formation) | Evaluation of fungistatic effect [2]: not fungistatic; also recorded: Fungal growth was observed in a 1000 ppm-treated plot. No fungistatic effect | fungicidal [2]: not fungicidal

CC(=O)N1CCN(c2ccc(OCC3COC(Cn4ccnc4)(c4ccc(Cl)cc4Cl)O3)cc2)CC1 (stereo not drawn) [Reference product 2, ketoconazole, reference compound]
Evaluation [1]: Poor in inhibition of biofilm formation (when the 50% inhibitory concentration of the test sample was more than 20 ppm, the test sample was regarded as poor in the inhibition of biofilm formation)

diglyceryl dicaprylate [Present invention product 2]
Evaluation [1]: Excellent in inhibition of biofilm formation (When the 50% inhibitory concentration of the test sample was 20 ppm or less, the test sample was regarded as excellent in the inhibition of biofilm formation) | Evaluation of fungistatic effect [2]: Fungal growth was observed in a 1000 ppm-treated plot. No fungistatic effect. | fungicidal [2]: none of the present invention products 1, 2, 3 and 4 were fungicidal

diglyceryl dicaprylate [Present invention product 3]
Evaluation [1]: Excellent in inhibition of biofilm formation (When the 50% inhibitory concentration of the test sample was 20 ppm or less, the test sample was regarded as excellent in the inhibition of biofilm formation) | Evaluation of fungistatic effect [2]: Fungal growth was observed in a 1000 ppm-treated plot. No fungistatic effect. | fungicidal [2]: none of the present invention products 1, 2, 3 and 4 were fungicidal

diglyceryl monocaprylate
effective against biofilm formation (Candida biofilm): poorly effective against biofilm formation

glyceryl dilaurate
effective against biofilm formation (Candida biofilm): less effective against biofilm formation than glyceryl monolaurate

monoglyceryl dicaprylate [Present invention product 1]
Evaluation [1]: Excellent in inhibition of biofilm formation (When the 50% inhibitory concentration of the test sample was 20 ppm or less, the test sample was regarded as excellent in the inhibition of biofilm formation) | Evaluation of fungistatic effect [2]: Fungal growth was observed in a 1000 ppm-treated plot. No fungistatic effect. | fungicidal [2]: none of the present invention products 1, 2, 3 and 4 were fungicidal
